# According to patent US10376585B2, “Injectable antibiotic formulations and their methods of use” (BAYER NEW ZEALAND LTD, priority 2012, dated 2019):
# What was measured:
# [1] = assay type: physicochemical
# Description: Thus the long term stability of PNT with triacetin (or other oily vehicles) is highly unexpected.
# After one month in accelerated stability the components of the composition appeared to degrade rapidly with a resulting colour change from an off-white to a dark yellow with dark brown sludge forming. The degradation components appeared to include a gas, resulting in the container swelling from the resultant pressure. Accordingly, the formulations described in CN 1517090 are not known to be storage stable.
# [2] = intramuscular administration; Friton 2003; cited from earlier work
# [3] = blood pH (7.2); cited from earlier work
# [4] = at 20° C.; cited from earlier work
smiles,measurement,setting,value
CC1(C)S[C@@H]2[C@H](NC(=O)Cc3ccccc3)C(=O)N2[C@H]1C(=O)O.CCN(CC)CCOC(=O)c1ccc(N)cc1 [procaine penicillin],chemical stability of composition,[1],chemically unstable
same,chemical stability on storage,[1],chemically unstable on storage
CC1(C)S[C@@H]2[C@H](NC(=O)Cc3ccccc3)C(=O)N2[C@H]1C(=O)O [benzylpenicillin],chemical stability on storage,[1],chemically unstable on storage
CCN(CC)CCOC(=O)[C@@H]1N2C(=O)[C@@H](NC(=O)Cc3ccccc3)[C@H]2SC1(C)C.I [penethamate hydroiodide],time to peak serum levels (measured as dissociated penicillin G) after injection,[2],3.76 h
same,active drug present in its hydrolysed form (benzylpenicillin) at equilibrium,[3],91.8%
CC(=O)OCC(COC(C)=O)OC(C)=O [Triacetin],viscosity,[4],approximately 23 mPas
